Assay results from PubChem BioAssay (NCI).
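Cultured in 96-well plates, cells were exposed to test compound for 48 hours across five concentrations. At the TGI there is no net growth.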

Assays:
Assay in all cases: DTP human tumour cell line panel, 48 h
UO-31 renal = system: UO-31 renal
OVCAR-4 ovarian = system: OVCAR-4 ovarian
MOLT-4 leukemia = system: MOLT-4 leukemia
M14 melanoma = system: M14 melanoma
OVCAR-8 ovarian = system: OVCAR-8 ovarian
OVCAR-3 ovarian = system: OVCAR-3 ovarian
HCC-2998 colon = system: HCC-2998 colon
KM12 colon = system: KM12 colon
SF-268 CNS = system: SF-268 CNS
T-47D breast = system: T-47D breast
NCI-H522 lung = system: NCI-H522 lung
LOX IMVI melanoma = system: LOX IMVI melanoma
HT29 colon = system: HT29 colon
MALME-3M melanoma = system: MALME-3M melanoma
SNB-75 CNS = system: SNB-75 CNS
MDA-MB-435 = system: MDA-MB-435
NCI/ADR-RES ovarian = system: NCI/ADR-RES ovarian
RXF 393 renal = system: RXF 393 renal
COLO 205 colon = system: COLO 205 colon
TK-10 renal = system: TK-10 renal
UACC-257 melanoma = system: UACC-257 melanoma
HL-60(TB) leukemia = system: HL-60(TB) leukemia
PC-3 prostate = system: PC-3 prostate
SK-MEL-5 melanoma = system: SK-MEL-5 melanoma
RPMI-8226 leukemia = system: RPMI-8226 leukemia
BT-549 breast = system: BT-549 breast
SW-620 colon = system: SW-620 colon
HCT-116 colon = system: HCT-116 colon
NCI-H460 lung = system: NCI-H460 lung
HCT-15 colon = system: HCT-15 colon
SK-MEL-2 melanoma = system: SK-MEL-2 melanoma
SN12C renal = system: SN12C renal
OVCAR-5 ovarian = system: OVCAR-5 ovarian
786-0 renal = system: 786-0 renal
MCF7 breast = system: MCF7 breast
SF-539 CNS = system: SF-539 CNS
EKVX NSCLC = system: EKVX NSCLC
NCI-H23 lung = system: NCI-H23 lung
A498 renal = system: A498 renal
SK-OV-3 ovarian = system: SK-OV-3 ovarian
K-562 leukemia = system: K-562 leukemia
MDA-MB-231 breast = system: MDA-MB-231 breast
SK-MEL-28 melanoma = system: SK-MEL-28 melanoma
A549 NSCLC = system: A549 NSCLC
HS 578T breast = system: HS 578T breast
CCRF-CEM leukemia = system: CCRF-CEM leukemia
MDA-N = system: MDA-N
SNB-19 CNS = system: SNB-19 CNS
UACC-62 melanoma = system: UACC-62 melanoma
SR leukemia = system: SR leukemia
CAKI-1 renal = system: CAKI-1 renal
DU-145 prostate = system: DU-145 prostate
U251 CNS = system: U251 CNS
NCI-H226 lung = system: NCI-H226 lung
IGROV1 ovarian = system: IGROV1 ovarian
HOP-92 NSCLC = system: HOP-92 NSCLC
HOP-62 NSCLC = system: HOP-62 NSCLC
SF-295 CNS = system: SF-295 CNS
ACHN renal = system: ACHN renal

In the case of `O=c1[nH][nH]c(=O)n1Cc1cccc(Cn2c(=O)[nH][nH]c2=O)c1`, the TGI (UO-31 renal) is reported as over 100 µM, the TGI (OVCAR-4 ovarian) is reported as over 100 µM and the TGI (MOLT-4 leukemia) is reported as over 100 µM. The TGI (M14 melanoma) was over 100 µM, the TGI (OVCAR-8 ovarian) was over 100 µM and the TGI (OVCAR-3 ovarian) was over 100 µM. The TGI (HCC-2998 colon) was over 100 µM, the TGI (KM12 colon) was over 100 µM and the TGI (SF-268 CNS) was over 100 µM. For the same compound, the TGI (T-47D breast) was over 100 µM, the TGI (NCI-H522 lung) was over 100 µM and the TGI (LOX IMVI melanoma) was over 100 µM. For the same compound, the TGI (HT29 colon) was over 100 µM, the TGI (MALME-3M melanoma) was over 100 µM and the TGI (SNB-75 CNS) was over 100 µM. It also gave a TGI (MDA-MB-435) of over 100 µM, a TGI (NCI/ADR-RES ovarian) of over 100 µM and a TGI (RXF 393 renal) of over 100 µM. It also gave a TGI (COLO 205 colon) of over 100 µM, a TGI (TK-10 renal) of over 100 µM and a TGI (UACC-257 melanoma) of over 100 µM. The TGI (HL-60(TB) leukemia) was over 100 µM, the TGI (PC-3 prostate) was over 100 µM and the TGI (SK-MEL-5 melanoma) was over 100 µM. It also gave a TGI (RPMI-8226 leukemia) of over 100 µM, a TGI (BT-549 breast) of over 100 µM and a TGI (SW-620 colon) of over 100 µM. For the same compound, the TGI (HCT-116 colon) was over 100 µM, the TGI (NCI-H460 lung) was over 100 µM and the TGI (HCT-15 colon) was over 100 µM. The TGI (SK-MEL-2 melanoma) was over 100 µM, the TGI (SN12C renal) was over 100 µM and the TGI (OVCAR-5 ovarian) was over 100 µM. For the same compound, the TGI (786-0 renal) was over 100 µM, the TGI (MCF7 breast) was over 100 µM and the TGI (SF-539 CNS) was over 100 µM. It also gave a TGI (EKVX NSCLC) of over 100 µM, a TGI (NCI-H23 lung) of over 100 µM and a TGI (A498 renal) of over 100 µM. The TGI (SK-OV-3 ovarian) was over 100 µM, the TGI (K-562 leukemia) was over 100 µM and the TGI (MDA-MB-231 breast) was over 100 µM. It also gave a TGI (SK-MEL-28 melanoma) of over 100 µM, a TGI (A549 NSCLC) of over 100 µM and a TGI (HS 578T breast) of over 100 µM. It also gave a TGI (CCRF-CEM leukemia) of over 100 µM, a TGI (MDA-N) of over 100 µM and a TGI (SNB-19 CNS) of over 100 µM. For the same compound, the TGI (UACC-62 melanoma) was over 100 µM, the TGI (SR leukemia) was over 100 µM and the TGI (CAKI-1 renal) was over 100 µM. The TGI (DU-145 prostate) was over 100 µM, the TGI (U251 CNS) was over 100 µM and the TGI (NCI-H226 lung) was over 100 µM.
Work on `O=C(CN=C(CN(c1ccccc1)c1ccccc1)Oc1c(Cl)cc(Cl)cc1Cl)N1c2ccccc2Sc2ccccc21` yielded a TGI (OVCAR-4 ovarian) of over 100 µM, a TGI (MOLT-4 leukemia) of over 100 µM and a TGI (M14 melanoma) of over 100 µM. It also gave a TGI (OVCAR-8 ovarian) of over 100 µM, a TGI (OVCAR-3 ovarian) of over 100 µM and a TGI (HCC-2998 colon) of over 100 µM. It also gave a TGI (IGROV1 ovarian) of over 100 µM, a TGI (KM12 colon) of over 100 µM and a TGI (SF-268 CNS) of over 100 µM. For the same compound, the TGI (T-47D breast) was over 100 µM, the TGI (NCI-H522 lung) was over 100 µM and the TGI (HT29 colon) was over 100 µM. The TGI (MALME-3M melanoma) was over 100 µM, the TGI (SNB-75 CNS) was over 100 µM and the TGI (MDA-MB-435) was over 100 µM. It also gave a TGI (NCI/ADR-RES ovarian) of over 100 µM, a TGI (RXF 393 renal) of 27.4 µM and a TGI (COLO 205 colon) of over 100 µM. For the same compound, the TGI (TK-10 renal) was over 100 µM, the TGI (UACC-257 melanoma) was over 100 µM and the TGI (HL-60(TB) leukemia) was over 100 µM. It also gave a TGI (PC-3 prostate) of over 100 µM, a TGI (SK-MEL-5 melanoma) of over 100 µM and a TGI (RPMI-8226 leukemia) of over 100 µM. The TGI (BT-549 breast) was over 100 µM, the TGI (SW-620 colon) was over 100 µM and the TGI (HCT-116 colon) was over 100 µM. It also gave a TGI (NCI-H460 lung) of over 100 µM, a TGI (HCT-15 colon) of over 100 µM and a TGI (SN12C renal) of over 100 µM. The TGI (OVCAR-5 ovarian) was over 100 µM, the TGI (786-0 renal) was over 100 µM and the TGI (MCF7 breast) was over 100 µM. For the same compound, the TGI (SF-539 CNS) was over 100 µM, the TGI (HOP-92 NSCLC) was 57.2 µM and the TGI (EKVX NSCLC) was over 100 µM. The TGI (NCI-H23 lung) was over 100 µM, the TGI (HOP-62 NSCLC) was over 100 µM and the TGI (SK-OV-3 ovarian) was over 100 µM. It also gave a TGI (SF-295 CNS) of over 100 µM, a TGI (MDA-MB-231 breast) of over 100 µM and a TGI (SK-MEL-28 melanoma) of over 100 µM. For the same compound, the TGI (A549 NSCLC) was over 100 µM, the TGI (HS 578T breast) was over 100 µM and the TGI (CCRF-CEM leukemia) was over 100 µM. It also gave a TGI (MDA-N) of over 100 µM, a TGI (SNB-19 CNS) of over 100 µM and a TGI (UACC-62 melanoma) of over 100 µM. The TGI (SR leukemia) was over 100 µM, the TGI (DU-145 prostate) was over 100 µM and the TGI (ACHN renal) was over 100 µM. The TGI (U251 CNS) was over 100 µM and the TGI (NCI-H226 lung) was over 100 µM.
`COc1ccc(Nc2nn3c(=O)c4c(C)c(C)sc4nc3s2)cc1` was tested, and the TGI (UO-31 renal) was 35.3 µM, the TGI (OVCAR-4 ovarian) was 48.3 µM and the TGI (MOLT-4 leukemia) was over 100 µM. The TGI (M14 melanoma) was over 100 µM, the TGI (OVCAR-8 ovarian) was over 100 µM and the TGI (OVCAR-3 ovarian) was 78.8 µM. The TGI (IGROV1 ovarian) was over 100 µM, the TGI (KM12 colon) was over 100 µM and the TGI (SF-268 CNS) was over 100 µM. The TGI (T-47D breast) was 63.5 µM, the TGI (NCI-H522 lung) was 67.1 µM and the TGI (LOX IMVI melanoma) was over 100 µM. For the same compound, the TGI (HT29 colon) was over 100 µM, the TGI (MALME-3M melanoma) was 89 µM and the TGI (SNB-75 CNS) was 49.8 µM. The TGI (MDA-MB-435) was over 100 µM, the TGI (NCI/ADR-RES ovarian) was over 100 µM and the TGI (RXF 393 renal) was 36.7 µM. It also gave a TGI (COLO 205 colon) of over 100 µM, a TGI (TK-10 renal) of 78.8 µM and a TGI (UACC-257 melanoma) of over 100 µM. For the same compound, the TGI (HL-60(TB) leukemia) was over 100 µM, the TGI (PC-3 prostate) was over 100 µM and the TGI (SK-MEL-5 melanoma) was over 100 µM. It also gave a TGI (BT-549 breast) of over 100 µM, a TGI (SW-620 colon) of over 100 µM and a TGI (HCT-116 colon) of 60.5 µM. For the same compound, the TGI (NCI-H460 lung) was over 100 µM, the TGI (HCT-15 colon) was over 100 µM and the TGI (SK-MEL-2 melanoma) was over 100 µM. For the same compound, the TGI (SN12C renal) was over 100 µM, the TGI (OVCAR-5 ovarian) was over 100 µM and the TGI (786-0 renal) was 51 µM. It also gave a TGI (MCF7 breast) of over 100 µM, a TGI (SF-539 CNS) of over 100 µM and a TGI (HOP-92 NSCLC) of 69.2 µM. It also gave a TGI (NCI-H23 lung) of 46.9 µM, a TGI (HOP-62 NSCLC) of 76.8 µM and a TGI (SK-OV-3 ovarian) of over 100 µM. It also gave a TGI (SF-295 CNS) of over 100 µM, a TGI (K-562 leukemia) of over 100 µM and a TGI (MDA-MB-231 breast) of over 100 µM. The TGI (SK-MEL-28 melanoma) was over 100 µM, the TGI (A549 NSCLC) was 38.5 µM and the TGI (HS 578T breast) was over 100 µM. The TGI (CCRF-CEM leukemia) was over 100 µM, the TGI (MDA-N) was over 100 µM and the TGI (SNB-19 CNS) was over 100 µM. The TGI (UACC-62 melanoma) was over 100 µM, the TGI (SR leukemia) was over 100 µM and the TGI (CAKI-1 renal) was over 100 µM. The TGI (DU-145 prostate) was 34.5 µM, the TGI (ACHN renal) was over 100 µM and the TGI (U251 CNS) was over 100 µM. The TGI (NCI-H226 lung) was over 100 µM.
